# Test results as given in patent publication US10765690B2, “TLR4 agonists and compositions thereof and their use in the treatment of cancer” (GlaxoSmithKline Intellectual Property Development Limited, priority 2015, dated 2020).
# Where “and” joins values, the source holds several entries; their conditions need not be identical. Identical values can stand only once.
# What was measured:
# [1] = tested on: CT-26 colorectal tumor cells; test: CT-26 syngeneic colon carcinoma model, escalating i.p. doses (Example 9); format: in vivo, Balb/c mice
# Excerpt: The CT26 mouse colon carcinoma (CT26.WT; ATCC #CRL-2638) cell line was obtained from ATCC. It is an N-nitroso-N-methylurethane-(NNMU) induced, undifferentiated colon carcinoma cell line known in the art. For example, it is described in: Wang M, et al. Active immunotherapy of cancer with a nonreplicating recombinant fowlpox virus encoding a model tumor-associated antigen. J. Immunol. 154: 4685-4692, 1995 (PubMed: 7722321), which is incorporated by reference in its entirety herein. For preparation of tumor cells, A frozen (−140° C.) vial of CT-26 (mouse colon carcinoma cells), from ATCC (cat # CRL-2638, lot #59227052) are thawed and cultured in basic RPMI (with 10% FBS) media over the following week.
# CT-26 cells (passage 12) are harvested from the flask in complete medium. Cells are centrifuged and resuspended in RPMI (without FBS), this step is repeated 3 times. Cell density and viability are checked via trypan blue exclusion. Cells are then diluted to desired density (5×10^5 cells per mL) and kept on ice.
# Escalating doses of CRX 527 are evaluated for their efficacy in reducing tumor growth. Animals are weighed and innoculated on the right hind quarter with 0.5×10^5 CT26 tumor cells per mouse on Day 0. A total of 130 mice are inoculated with tumor cells—assuming 30% failure rate (either too big or too small at time of start of study), the goal is to have n=10 for each group. After tumor cell innoculation, tumor growth and total body weight are measured 3 times a week for the duration of the study. Randomization occurs on day 10 or 11 when the average tumor volume is approximately 100 mm^3. Begining on the day of randomization, animals are dosed with CRX 527 or vehicle i.p. biweekly, for a total of 6 doses. Mice remain on study until tumors reach >2000 cu mm for two consecutive measurements, they are removed from study for other reasons (i.e. weight loss >20%, ulceration on tumor, etc.) or until the end of the study. After euthanization the tumors may be removed and subject to dissociation for flow analysis and/or FFPE for IHC analysis.
# The above protocol was used to generate the results in FIG. 17 at the dosages indicated. In almost every case, Balb/c mice that were inoculated with 0.5×10^5 CT-26 colorectal tumor cells on the right hind quarter developed tumors that, when treated i.p. with vehicle (2% glycerol) only, and progressed as expected. […] FIG. 17.
# [2] = tested on: Murine EMT6 breast epithelial cells; test: EMT6 breast epithelial syngeneic solid tumor model; format: in vivo, Balb/c mice
# Description: The in vivo anti-tumor efficacy of the TLR4 agonist (CRX-601) was assessed in the murine EMT6 breast epithelial syngeneic solid tumor model as a monotherapy versus control and anti-PD-1 treatment. Seven to eight week old female Balb/c mice (BALB/cAnNHsd, Envigo) were used in these studies. Murine EMT6 breast epithelial cells (ATCC catalog number lot # CRL-2755) were cultured in RPMI growth medium supplemented with 10% fetal bovine serum (FBS) in a humidified 37° C. incubator with 5% CO2. EMT6 cells cultured in logarithmic growth were harvested from tissue culture flasks and centrifuged for 5 minutes at 450×g at 4° C. for ten minutes to pellet cells. The supernatant was discarded, and cells were washed in ice cold phosphate buffered saline (PBS) without calcium and magnesium and centrifuged again for 5 minutes at 450×g at 4′C for ten minutes to pellet cells. The cells were resuspended in sterile RPMI media without FBS and adjusted to a cell concentration of 1×10^6 cells/ml. 100 μl of the cell stock was implanted via subcutaneous injection into the right flank of each Balb/c mouse. After seven or nine days when the average tumor size reached approximately 100 mm^3, mice were randomized into study cohorts according to tumor size and the first treatment dose was given. The TLR4 agonist (CRX-601) or vehicle was dosed via a systemic intravenous dose once per week for three total doses. The CRX-601 vehicle was 0.5% Glycerol/4% Dextrose, eE 810115-V. The rat anti-mouse PD-1 receptor antibody (clone RMP1-14, BioXCell catalog # BE0146, lot #5792-599016J1) or Rat IgG2a isotype control antibody (BioXCell catalog # BE0089,lot #601416M1B) was dosed via an intraperitoneal injection given every other day for a total of three doses, with the first dose given concurrently with the first CRX-601 dose. Caliper measurements were taken three times per week to assess tumor growth, and mice with tumors >2,000 mm^3 for 2 consecutive measurements or mice with tumors which formed open ulcers were removed from the study. Tumor volume was calculated using the formula (0.52)×(Length)×(Width2). All studies were conducted in accordance with the GSK Policy on the Care, Welfare and Treatment of Laboratory Animals and were reviewed by the Institutional Animal Care and Use Committee at GSK. To determine significance of tumor growth inhibition, tumor volumes 19 days post first dose were compared between the different treatment groups. Treatments were compared by standard ANOVA methods followed by FDR adjustment for multiplicity. Response is square root of volume, for homoscedasticity (equal variance) reasons. Kaplan-Meier (KM) method was carried out to estimate the survival probability of different treatment groups at a given time. For these survival analyses, “Death” means crossing the tumor volume cutoff (2000 mm3). “Survival” means proportion of mice not “Dead”, and “Survival time” means days until “Death”. If a mouse crossed the volume cutoff between two measurement days, then the day of “Death” was estimated by linear interpolation. If a mouse crossed the volume cutoff more than once, the first crossing was used. Treatments were compared by the standard log-rank test for two treatments. The log-rank p-values were adjusted for multiplicity using the FDR (false discovery rate) method. Significance was defined as FDR<=0.05. All calculations and graphs were done using R software, version 3.2.3.
compound,measurement,setting,value
CCCCCCCCCCC[C@H](CC(=O)N[C@H]1[C@H](OC[C@H](NC(=O)C[C@@H](CCCCCCCCCCC)OCCCCCCCCCC)C(=O)O)O[C@H](CO)[C@@H](OP(=O)(O)O)[C@@H]1OC(=O)C[C@@H](CCCCCCCCCCC)OCCCCCCCCCC)OCCCCCCCCCC [CRX-601],Mean % Inhibition,"[1]; 4 ug, study day 14 (9/16)",−59.63%
same,Mean % Inhibition,"[1]; 4 ug, study day 17 (9/19)",4.57%
same,Mean % Inhibition,"[1]; 4 ug, study day 21 (9/23)",−1.55%
same,Mean % Inhibition,"[1]; 4 ug, study day 24 (9/26)",21.73%
same,Mean % Inhibition,"[1]; 4 ug, study day 28 (9/30)",7.65%
same,Mean % Inhibition,"[1]; 4 ug, study day 31 (10/3)",−34.14%
same,Mean % Inhibition,"[1]; 20 ug, study day 14 (9/16)",42.34%
same,Mean % Inhibition,"[1]; 20 ug, study day 17 (9/19)",69.46%
same,Mean % Inhibition,"[1]; 20 ug, study day 21 (9/23)",50.75%
same,Mean % Inhibition,"[1]; 20 ug, study day 24 (9/26)",66.96%
same,Mean % Inhibition,"[1]; 20 ug, study day 28 (9/30)",50.75%
same,Mean % Inhibition,"[1]; 20 ug, study day 31 (10/3)",−18.27%
same,Mean % Inhibition,"[1]; 100 ug, study day 14 (9/16)",68.20%
same,Mean % Inhibition,"[1]; 100 ug, study day 17 (9/19)",92.51%
same,Mean % Inhibition,"[1]; 100 ug, study day 21 (9/23)",98.50%
same,Mean % Inhibition,"[1]; 100 ug, study day 24 (9/26)",93.21%
same,Mean % Inhibition,"[1]; 100 ug, study day 28 (9/30)",94.68%
same,Mean % Inhibition,"[1]; 100 ug, study day 31 (10/3)",80.15%
same,increase in survival compared to vehicle group 1,"[2]; 25 ug CRX-601 IV, by day 33 post EMT6 inoculation, p-value=0.03",statistically significant
same,mice remained on study,"[2]; 25 ug CRX-601 group, day 33",6 mice
same,tumor free mice,"[2]; 25 ug CRX-601 group, day 33",4 mice
same,tumor volumes of remaining tumor-bearing mice,"[2]; 25 ug CRX-601 group, day 33, individual mice",649 mm^3 and 382 mm^3
same,tumor growth inhibition compared to vehicle group 1,"[2]; 25 ug CRX-601 intravenous once per week x3 (+200 ug Rat IgG2a), 19 days after the initial dose, p-value<0.001",statistically significant tumor growth inhibition
same,tumor growth inhibition compared to anti-PD-1 treatment group 3,"[2]; 25 ug CRX-601 intravenous once per week x3, 19 days after the initial dose, p-value=0.041",statistically significant tumor growth inhibition
